Active and inactive are the calls of the source. The calls are words filed in the database; no cut-off is given here.
Assays:
C6 [1] = test: Inhibition of cell proliferation of rat C6 cells assessed as cell viability at 100 uM after 72 hrs by sulforhodamine B assay; type: functional; settings: C6, 72 h, read-out: Activity
U-251 [2] = test: Inhibition of cell proliferation of human U251 cells assessed as cell viability after 72 hrs by sulforhodamine B assay; type: functional, cell-based
U-251 [3] = test: Inhibition of cell proliferation of human U251 cells assessed as cell viability at 100 uM after 72 hrs by sulforhodamine B assay; type: functional; settings: U-251, 72 h, read-out: Activity
U-87MG ATCC = test: Inhibition of cell proliferation of human U87MG cells assessed as cell viability after 72 hrs by sulforhodamine B assay; type: functional, cell-based
C6 [4] = test: Inhibition of cell proliferation of rat C6 cells assessed as cell viability after 72 hrs by sulforhodamine B assay; type: functional, cell-based

Question: Which results are given for `C[C@@H]1O[C@@H](O[C@H]2[C@H](OC(=O)[C@]34CCC(C)(C)C[C@H]3C3=CC[C@@H]5[C@@]6(C)CC[C@H](O[C@@H]7O[C@H](CO[C@@H]8OC[C@H](O)[C@H](O)[C@H]8O[C@@H]8OC[C@@H](O)[C@H](O)[C@H]8O)[C@@H](O)[C@H](O)[C@H]7O)C(C)(C)[C@@H]6CC[C@@]5(C)[C@]3(C)C[C@H]4O)O[C@H](CO)[C@@H](O)[C@@H]2O)[C@H](O[C@@H]2O[C@H](CO)[C@H](O)[C@H](O)[C@H]2O)[C@H](O)[C@H]1O[C@@H]1OC[C@@H](O)[C@H](O[C@@H]2OC[C@@H](O)[C@H](O)[C@H]2O)[C@H]1O`?
Answer: viability at 100 µM (C6 [1]): 61.5%; inhibition (U-251 [2]): inactive; viability at 100 µM (U-251 [3]): 130%; inhibition (U-87MG ATCC): inactive; inhibition (C6 [4]): inactive

Question: For `C[C@@H]1O[C@@H](OC[C@H]2O[C@@H](OC(=O)[C@]34CCC(C)(C)C[C@H]3C3=CC[C@@H]5[C@@]6(C)CC[C@H](O[C@@H]7O[C@H](CO[C@@H]8OC[C@H](O)[C@H](O)[C@H]8O)[C@@H](O)[C@H](O)[C@H]7O)C(C)(C)[C@@H]6CC[C@@]5(C)[C@]3(C)C[C@H]4O)[C@H](O[C@@H]3O[C@@H](C)[C@H](O[C@@H]4OC[C@@H](O)[C@H](O[C@@H]5OC[C@@H](O)[C@H](O)[C@H]5O)[C@H]4O)[C@@H](O)[C@H]3O)[C@@H](O)[C@@H]2O)[C@H](O)[C@H](O)[C@H]1O`, which viability at 100 µM (C6 [1]) is on record?
Answer: 63.9%

Question: And the inhibition (U-251 [2])?
Answer: inactive

Question: And the viability at 100 µM (U-251 [3])?
Answer: 72.3%

Question: And the inhibition (U-87MG ATCC)?
Answer: inactive

Question: What about the inhibition (C6 [4]) of the same compound?
Answer: inactive

Question: With `C[C@@H]1O[C@@H](O[C@H]2[C@H](OC(=O)[C@]34CCC(C)(C)C[C@H]3C3=CC[C@@H]5[C@@]6(C)CC[C@H](O[C@@H]7O[C@H](CO[C@@H]8OC[C@H](O)[C@H](O)[C@H]8O[C@@H]8OC[C@@H](O)[C@H](O)[C@H]8O)[C@@H](O)[C@H](O)[C@H]7O)C(C)(C)[C@@H]6CC[C@@]5(C)[C@]3(C)CC4)O[C@H](CO)[C@@H](O)[C@@H]2O)[C@H](O)[C@H](O)[C@H]1O[C@@H]1OC[C@@H](O)[C@H](O[C@@H]2OC[C@@H](O)[C@H](O)[C@H]2O)[C@H]1O` as the compound, how does the viability at 100 µM (C6 [1]) read?
Answer: 62.7%

Question: And the inhibition (U-251 [2])?
Answer: inactive

Question: What about the viability at 100 µM (U-251 [3]) of the same compound?
Answer: 91.8%

Question: What about the inhibition (U-87MG ATCC) of the same compound?
Answer: inactive

Question: What about the inhibition (C6 [4]) of the same compound?
Answer: inactive

Question: Which viability at 100 µM (C6 [1]) does the source give for `C[C@@H]1O[C@@H](O[C@H]2[C@H](OC(=O)[C@]34CCC(C)(C)C[C@H]3C3=CC[C@@H]5[C@@]6(C)CC[C@H](O[C@@H]7O[C@H](CO[C@@H]8OC[C@H](O)[C@H](O)[C@H]8O[C@@H]8OC[C@@H](O)[C@H](O)[C@H]8O)[C@@H](O)[C@H](O)[C@H]7O)C(C)(C)[C@@H]6CC[C@@]5(C)[C@]3(C)C[C@H]4O)O[C@H](CO)[C@@H](O)[C@@H]2O)[C@H](O[C@@H]2OC[C@@H](O)[C@H](O)[C@H]2O)[C@H](O)[C@H]1O[C@@H]1OC[C@@H](O)[C@H](O[C@@H]2OC[C@@H](O)[C@H](O)[C@H]2O)[C@H]1O` here?
Answer: 81.6%

Question: What about the inhibition (U-251 [2]) of the same compound?
Answer: inactive

Question: And the viability at 100 µM (U-251 [3])?
Answer: 93.6%

Question: And the inhibition (U-87MG ATCC)?
Answer: inactive

Question: And the inhibition (C6 [4])?
Answer: inactive

Question: What does the source list for `CC1(C)CC[C@]2(C(=O)O)CC[C@]3(C)C(=CC[C@@H]4[C@@]5(C)CC[C@H](O[C@@H]6O[C@H](CO[C@@H]7OC[C@H](O)[C@H](O)[C@H]7O[C@@H]7OC[C@@H](O)[C@H](O)[C@H]7O)[C@@H](O)[C@H](O)[C@H]6O)C(C)(C)[C@@H]5CC[C@]43C)[C@@H]2C1` [PITHEDULOSIDE C]?
Answer: viability at 100 µM (C6 [1]): 63%; inhibition (U-251 [2]): inactive; viability at 100 µM (U-251 [3]): 104%; inhibition (U-87MG ATCC): inactive; inhibition (C6 [4]): inactive
